Assay results: paper PMC7180948, “New Insights into 4-Anilinoquinazolines as Inhibitors of Cardiac Troponin I–Interacting Kinase (TNNi3K)” (Molecules, 2020)

How the values were obtained:
Assay in all cases: biochemical
Parameters in all cases: KINOMEscan competition binding panel (Eurofins DiscoverX), single concentration, percent inhibition
Settings in all cases: read-out: 15 at 1 µM % inhibition
[1] = molecular target: PIM1 (Homo sapiens, UniProt P11309)
Experimental: (§1) KinomeScan® Assay on 7 and 15 was performed as previously described by EuroFins DiscoverX [24]. GSK114 (7) and 15 were submitted for a KINOMEscan® assay to explore the selectivity profile across >400 human kinases at a compound concentration of 1 µM. […] GSK114 (7) is a narrow-spectrum TNNi3K inhibitor but has some potent off-targets including GAK which has been previously reported for this chemotype. […] If utilized together this set of compounds could be useful to investigate TNNi3K biology.

[2] = molecular target: T1, MST3 (Homo sapiens, UniProt Q9Y6E0)
T1 construct: gene STK24
Experimental: as §1

[3] = molecular target: WNK3 (Homo sapiens, UniProt Q9BYP7)
Experimental: as §1

[4] = molecular target: PIK3CA(E545A) (Homo sapiens, UniProt P42336, E545A)
Experimental: as §1

[5] = molecular target: PIK3C2B (Homo sapiens, UniProt O00750)
Experimental: as §1

[6] = molecular target: FLT3(N841I) (Homo sapiens, UniProt P36888, N841I)
Experimental: as §1

[7] = molecular target: WEE1 (Homo sapiens, UniProt P30291)
Experimental: as §1

[8] = molecular target: CSNK2A1 (Homo sapiens, UniProt P68400)
Experimental: as §1

[9] = molecular target: T2, SIK (Homo sapiens, UniProt P57059)
T2 construct: gene SIK1
Experimental: as §1

[10] = molecular target: T3, SNARK (Homo sapiens, UniProt Q9H093)
T3 construct: gene NUAK2
Experimental: as §1

[11] = molecular target: MYO3B (Homo sapiens, UniProt Q8WXR4)
Experimental: as §1

[12] = molecular target: GRK2 (Homo sapiens, UniProt P25098)
Experimental: as §1

[13] = molecular target: TLK2 (Homo sapiens, UniProt Q86UE8)
Experimental: as §1

[14] = molecular target: T4, RIPK5 (Homo sapiens, UniProt Q6XUX3)
T4 construct: gene DSTYK
Experimental: as §1

[15] = molecular target: CLK1 (Homo sapiens, UniProt P49759)
Experimental: as §1

[16] = molecular target: CDK9 (Homo sapiens, UniProt P50750)
Experimental: as §1

[17] = molecular target: BMPR1A (Homo sapiens, UniProt P36894)
Experimental: as §1

[18] = molecular target: SBK1 (Homo sapiens, UniProt Q52WX2)
Experimental: as §1

[19] = molecular target: BUB1 (Homo sapiens, UniProt O43683)
Experimental: as §1

[20] = molecular target: T5, TRKC (Homo sapiens, UniProt Q16288)
T5 construct: gene NTRK3
Experimental: as §1

[21] = molecular target: T6, ABL1-phosphorylated (Homo sapiens, UniProt P00519)
T6 construct: phosphorylated
Experimental: as §1

[22] = molecular target: T7, PFTAIRE2 (Homo sapiens, UniProt Q96Q40)
T7 construct: gene CDK15
Experimental: as §1

[23] = molecular target: T8, MST1 (Homo sapiens, UniProt Q13043)
T8 construct: gene STK4
Experimental: as §1

[24] = molecular target: NEK11 (Homo sapiens, UniProt Q8NG66)
Experimental: as §1

Sequence of WEE1 (P30291 whole entry): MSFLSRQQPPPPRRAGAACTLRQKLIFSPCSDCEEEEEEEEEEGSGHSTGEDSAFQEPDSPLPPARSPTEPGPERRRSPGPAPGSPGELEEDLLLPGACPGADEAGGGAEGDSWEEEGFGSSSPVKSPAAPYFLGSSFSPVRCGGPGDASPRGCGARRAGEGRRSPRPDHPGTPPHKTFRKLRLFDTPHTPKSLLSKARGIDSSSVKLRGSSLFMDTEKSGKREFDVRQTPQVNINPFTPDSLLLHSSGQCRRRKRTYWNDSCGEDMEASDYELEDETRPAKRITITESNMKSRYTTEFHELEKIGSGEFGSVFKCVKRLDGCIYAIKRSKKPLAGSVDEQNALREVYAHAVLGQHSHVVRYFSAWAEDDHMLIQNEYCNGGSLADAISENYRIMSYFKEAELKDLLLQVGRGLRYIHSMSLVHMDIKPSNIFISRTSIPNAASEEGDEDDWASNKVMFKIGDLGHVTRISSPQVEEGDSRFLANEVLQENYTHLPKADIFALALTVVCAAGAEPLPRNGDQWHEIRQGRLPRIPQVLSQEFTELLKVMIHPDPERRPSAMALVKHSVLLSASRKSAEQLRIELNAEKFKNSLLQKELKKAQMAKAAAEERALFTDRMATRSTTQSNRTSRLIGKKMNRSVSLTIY
Sequence of SBK1 (Q52WX2 whole entry): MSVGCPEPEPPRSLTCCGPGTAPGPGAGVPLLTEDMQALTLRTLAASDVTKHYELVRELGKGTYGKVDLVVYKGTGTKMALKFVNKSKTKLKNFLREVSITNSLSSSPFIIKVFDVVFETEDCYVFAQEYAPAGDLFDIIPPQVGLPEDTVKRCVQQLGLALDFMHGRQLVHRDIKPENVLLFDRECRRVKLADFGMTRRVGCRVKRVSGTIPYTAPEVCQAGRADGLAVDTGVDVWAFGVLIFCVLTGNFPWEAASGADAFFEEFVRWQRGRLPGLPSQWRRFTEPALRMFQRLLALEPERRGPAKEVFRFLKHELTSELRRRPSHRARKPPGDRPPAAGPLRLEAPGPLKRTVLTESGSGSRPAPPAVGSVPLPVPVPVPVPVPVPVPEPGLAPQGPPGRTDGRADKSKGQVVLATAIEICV
T6 sequence (P00519 whole entry): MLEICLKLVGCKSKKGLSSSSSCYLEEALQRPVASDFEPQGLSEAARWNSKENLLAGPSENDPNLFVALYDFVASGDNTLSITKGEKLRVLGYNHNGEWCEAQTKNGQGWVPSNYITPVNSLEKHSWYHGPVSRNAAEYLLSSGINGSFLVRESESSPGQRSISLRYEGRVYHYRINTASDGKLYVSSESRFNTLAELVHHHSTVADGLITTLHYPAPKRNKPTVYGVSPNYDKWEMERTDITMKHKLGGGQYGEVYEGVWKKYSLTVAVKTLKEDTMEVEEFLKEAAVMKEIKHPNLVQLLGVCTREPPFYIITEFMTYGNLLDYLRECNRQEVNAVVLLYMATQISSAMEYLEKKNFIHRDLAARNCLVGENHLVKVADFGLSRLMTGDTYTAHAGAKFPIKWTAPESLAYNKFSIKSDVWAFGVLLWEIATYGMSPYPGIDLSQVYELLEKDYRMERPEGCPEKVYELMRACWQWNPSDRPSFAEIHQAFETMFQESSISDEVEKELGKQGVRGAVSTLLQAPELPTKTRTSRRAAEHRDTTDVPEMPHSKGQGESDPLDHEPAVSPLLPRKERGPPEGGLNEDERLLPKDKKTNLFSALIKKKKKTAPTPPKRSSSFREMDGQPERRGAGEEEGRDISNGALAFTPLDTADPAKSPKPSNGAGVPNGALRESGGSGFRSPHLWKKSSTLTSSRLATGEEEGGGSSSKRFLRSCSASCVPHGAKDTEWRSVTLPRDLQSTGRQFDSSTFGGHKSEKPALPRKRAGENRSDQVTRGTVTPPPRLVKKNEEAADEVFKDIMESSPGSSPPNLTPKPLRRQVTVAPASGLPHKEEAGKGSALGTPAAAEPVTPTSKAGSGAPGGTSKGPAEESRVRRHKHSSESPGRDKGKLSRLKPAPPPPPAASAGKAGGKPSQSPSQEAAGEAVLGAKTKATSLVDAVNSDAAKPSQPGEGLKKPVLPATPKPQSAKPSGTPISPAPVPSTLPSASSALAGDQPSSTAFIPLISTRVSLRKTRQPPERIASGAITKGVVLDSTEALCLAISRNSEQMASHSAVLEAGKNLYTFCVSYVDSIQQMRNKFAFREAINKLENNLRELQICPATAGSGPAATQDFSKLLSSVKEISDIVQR
Sequence of TLK2 (Q86UE8 whole entry): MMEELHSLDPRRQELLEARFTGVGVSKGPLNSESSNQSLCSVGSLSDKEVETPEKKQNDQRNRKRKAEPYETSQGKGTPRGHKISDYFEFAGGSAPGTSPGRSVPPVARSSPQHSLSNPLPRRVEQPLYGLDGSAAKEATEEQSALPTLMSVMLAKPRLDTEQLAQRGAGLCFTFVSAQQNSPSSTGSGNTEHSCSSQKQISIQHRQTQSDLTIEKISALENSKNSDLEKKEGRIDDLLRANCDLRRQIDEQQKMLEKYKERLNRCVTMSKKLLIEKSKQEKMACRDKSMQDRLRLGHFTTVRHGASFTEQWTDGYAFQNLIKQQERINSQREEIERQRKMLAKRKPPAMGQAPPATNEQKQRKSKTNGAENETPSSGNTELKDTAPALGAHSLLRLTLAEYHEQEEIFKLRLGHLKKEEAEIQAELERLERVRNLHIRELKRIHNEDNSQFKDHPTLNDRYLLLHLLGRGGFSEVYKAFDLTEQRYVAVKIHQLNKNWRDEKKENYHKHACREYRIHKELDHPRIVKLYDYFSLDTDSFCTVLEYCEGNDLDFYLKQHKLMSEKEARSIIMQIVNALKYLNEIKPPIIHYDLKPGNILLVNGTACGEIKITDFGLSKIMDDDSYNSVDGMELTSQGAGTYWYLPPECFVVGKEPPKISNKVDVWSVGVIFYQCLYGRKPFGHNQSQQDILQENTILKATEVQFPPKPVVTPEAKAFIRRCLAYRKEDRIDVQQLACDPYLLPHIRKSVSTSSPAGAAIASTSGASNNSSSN
Sequence of BUB1 (O43683 whole entry): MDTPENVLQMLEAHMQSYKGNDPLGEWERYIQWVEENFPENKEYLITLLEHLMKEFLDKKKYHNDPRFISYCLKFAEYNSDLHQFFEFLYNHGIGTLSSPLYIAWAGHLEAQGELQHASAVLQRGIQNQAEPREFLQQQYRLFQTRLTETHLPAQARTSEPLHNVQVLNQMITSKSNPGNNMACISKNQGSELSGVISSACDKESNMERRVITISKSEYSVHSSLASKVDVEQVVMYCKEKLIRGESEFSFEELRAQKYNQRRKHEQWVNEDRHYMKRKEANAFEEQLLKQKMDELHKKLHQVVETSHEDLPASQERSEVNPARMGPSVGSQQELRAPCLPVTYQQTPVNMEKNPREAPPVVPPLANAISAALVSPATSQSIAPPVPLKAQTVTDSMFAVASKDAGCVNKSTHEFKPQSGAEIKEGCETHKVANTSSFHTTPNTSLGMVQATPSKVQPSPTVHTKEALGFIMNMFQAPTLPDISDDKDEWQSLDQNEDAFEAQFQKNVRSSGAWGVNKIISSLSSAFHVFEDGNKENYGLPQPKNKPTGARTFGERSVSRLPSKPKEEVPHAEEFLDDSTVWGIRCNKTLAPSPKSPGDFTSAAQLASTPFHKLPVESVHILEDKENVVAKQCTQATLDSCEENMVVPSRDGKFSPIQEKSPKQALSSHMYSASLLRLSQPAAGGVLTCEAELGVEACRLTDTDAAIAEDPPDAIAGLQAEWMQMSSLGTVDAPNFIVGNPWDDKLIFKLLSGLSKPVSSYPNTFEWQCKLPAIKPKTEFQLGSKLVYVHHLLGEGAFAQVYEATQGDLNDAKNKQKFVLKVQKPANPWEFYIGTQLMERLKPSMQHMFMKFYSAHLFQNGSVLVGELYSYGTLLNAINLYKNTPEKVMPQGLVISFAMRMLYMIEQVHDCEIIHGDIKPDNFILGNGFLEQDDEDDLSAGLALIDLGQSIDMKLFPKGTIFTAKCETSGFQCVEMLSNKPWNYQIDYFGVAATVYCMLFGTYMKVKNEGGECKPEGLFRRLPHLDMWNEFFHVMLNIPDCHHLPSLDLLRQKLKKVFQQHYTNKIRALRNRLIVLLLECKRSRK
Sequence of PIM1 (P11309 whole entry): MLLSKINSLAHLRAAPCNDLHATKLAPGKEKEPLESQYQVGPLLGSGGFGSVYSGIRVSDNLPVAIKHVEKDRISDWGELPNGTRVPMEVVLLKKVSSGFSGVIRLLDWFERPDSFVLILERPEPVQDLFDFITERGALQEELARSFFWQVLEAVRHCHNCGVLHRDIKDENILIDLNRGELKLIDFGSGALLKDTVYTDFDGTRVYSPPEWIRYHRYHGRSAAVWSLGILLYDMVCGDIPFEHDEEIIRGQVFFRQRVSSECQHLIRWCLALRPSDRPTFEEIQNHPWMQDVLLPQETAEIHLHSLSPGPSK
T1 sequence (Q9Y6E0 whole entry): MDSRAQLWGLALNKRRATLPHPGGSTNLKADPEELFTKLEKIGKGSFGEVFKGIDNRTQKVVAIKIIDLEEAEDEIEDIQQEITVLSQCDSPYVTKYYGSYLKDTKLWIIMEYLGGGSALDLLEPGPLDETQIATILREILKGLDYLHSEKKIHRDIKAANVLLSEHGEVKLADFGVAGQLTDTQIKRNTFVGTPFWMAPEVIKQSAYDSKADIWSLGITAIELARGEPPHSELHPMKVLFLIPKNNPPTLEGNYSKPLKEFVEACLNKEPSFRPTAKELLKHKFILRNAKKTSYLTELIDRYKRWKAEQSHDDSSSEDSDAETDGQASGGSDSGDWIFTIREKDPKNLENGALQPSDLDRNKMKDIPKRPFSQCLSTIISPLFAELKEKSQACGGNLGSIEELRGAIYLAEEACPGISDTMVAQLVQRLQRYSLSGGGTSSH

- inhibition at 1 µM [1]: 2%
- inhibition at 1 µM [2]: 0%
- inhibition at 1 µM [3]: 0%
- inhibition at 1 µM [4]: 1%
- inhibition at 1 µM [5]: 71%
- inhibition at 1 µM [6]: 0%
- inhibition at 1 µM [7]: 7%
- inhibition at 1 µM [8]: 18%
- inhibition at 1 µM [9]: 13%
- inhibition at 1 µM [10]: 18%
- inhibition at 1 µM [11]: 15%
- inhibition at 1 µM [12]: 10%
- inhibition at 1 µM [13]: 0%
- inhibition at 1 µM [14]: 12%
- inhibition at 1 µM [15]: 0%
- inhibition at 1 µM [16]: 0%
- inhibition at 1 µM [17]: 0%
- inhibition at 1 µM [18]: 44%
- inhibition at 1 µM [19]: 7%
- inhibition at 1 µM [20]: 22%
- inhibition at 1 µM [21]: 0%
- inhibition at 1 µM [22]: 5%
- inhibition at 1 µM [23]: 5%
- inhibition at 1 µM [24]: 12%
Compound: CNS(=O)(=O)c1ccc(N(C)C)c(Nc2nc(C)nc3cc(OC)c(OC)cc23)c1 [compound 15, 3-((6,7-dimethoxy-2-methylquinazolin-4-yl)amino)-4-(dimethylamino)-N-methylbenzenesulfonamide]
